Results on 16 molecules are retold here after patent US6525059B1, “Substituted pyrazoles as p38 kinase inhibitors” (G. D. Searle & Company, priority 1998, dated 2003).

For test [1], the target named is T1, human GST-p38 kinase alpha (Homo sapiens, UniProt Q16539).
T1 construct: The coding region of the human p38a cDNA was obtained by PCR-amplification from RNA isolated from the human monocyte cell line THP.1; made in house; host or cells: E. coli DH10B
The test can be described thus: p38 kinase in vitro assay, second format, phosphorylation of EGFRP with 33P-ATP. It is filed as biochemical. The procedure: A second assay format was also employed that is based on p38 kinase alpha induced phosphorylation of EGFRP (epidermal growth factor receptor peptide, a 21 mer) in the presence of ^33P-ATP. Compounds were tested in 10 fold serial dilutions over the range of 100 μM to 0.001 μM in 10% DMSO. Each concentration of inhibitor was tested in triplicate. Compounds were evaluated in 50 μl reaction volumes in the presence of 25 mM Hepes pH 7.5, 10 mM magnesium acetate, 4% glycerol, 0.4% bovine serum albumin, 0.4 mM DTT, 50 μM unlabeled ATP, 25 μg EGFRP (200 μM), and 0.05 uCi gamma ^33P-ATP. Reactions were initiated by addition of 0.09 μg of activated, purified human GST-p38 kinase alpha. Activation was carried out using GST-MKK6 (5:1, p38: MKK6) for one hour at 30° C. in the presence of 50 μM ATP. Following incubation for 60 minutes at room temperature, the reaction was stopped by addition of 150 μl of AG 1×8 resin in 900 mM sodium formate buffer, pH 3.0 (1 volume resin to 2 volumes buffer). The mixture was mixed three times with pipetting and the resin was allowed to settle. A total of 50 μl of clarified solution head volume was transferred from the reaction wells to Microlite-2 plates. 150 μl of Microscint 40 was then added to each well of the Microlite plate, and the plate was sealed, mixed, and counted.

In the next test the test system is TNF-α. Nature of the test: LPS stimulation of TNF production by U937 cells. The test is classed as cell-based, human. To be noted: Homo sapiens, U-937, LPS-stimulated U937 cells; read-out: U937 IC50. The method in brief:
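PMA-differentiated human U937 cells (20 ng/ml PMA, 24 h, then 24-48 h rest) at 2 million cells/ml, 0.1% DMSO final, stimulated with E. coli LPS (100 ng/ml final) for 4 h at 37° C. TNF-α in medium measured by ELISA; IC50 in μM.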

A further test addresses T2, human p38 kinase alpha (Homo sapiens, UniProt Q16539).
T2 construct: The coding region of the human p38a cDNA was obtained by PCR-amplification from RNA isolated from the human monocyte cell line THP.1; GST (N); made in house; host or cells: E. coli DH10B
The test can be described thus: p38 kinase in vitro assay, phosphorylation of biotinylated PHAS-I with gamma 32P-ATP. It is filed as biochemical. The note with it: p38α in vitro, PHAS-I assay procedure; read-out: p38^1 IC50. The method in brief: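 MKK6-activated human p38α phosphorylates biotinylated PHAS-I with γ-32P-ATP in 25 mM HEPES pH 7.5, 10 mM Mg acetate, 50 μM unlabeled ATP, 1% DMSO, 30 °C for 1 h or overnight. Compounds at 100–0.001 μM (10-fold steps, triplicate); substrate captured on streptavidin filter plates and counted by scintillation.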

The mark [2] stands for this setting: p38α in vitro, EGFRP assay procedure, read-out: p38^2 IC50.
Where [3] appears, read: Table 10, 10% DMSO, @ 1.0 hour, read-out: p38α Kinase Assay IC50.

As a reminder, the IC50 is the concentration at which inhibition is half-maximal.

Each structure is given as a SMILES string. “And” between values parts separate entries of the source, which are not always exact repeats. Equal values may be shown once. Where a name gives a salt, the structure may show the parent alone. Read-outs that look alike come from different tables or passages of the source.

T1 sequence (Q16539 whole entry): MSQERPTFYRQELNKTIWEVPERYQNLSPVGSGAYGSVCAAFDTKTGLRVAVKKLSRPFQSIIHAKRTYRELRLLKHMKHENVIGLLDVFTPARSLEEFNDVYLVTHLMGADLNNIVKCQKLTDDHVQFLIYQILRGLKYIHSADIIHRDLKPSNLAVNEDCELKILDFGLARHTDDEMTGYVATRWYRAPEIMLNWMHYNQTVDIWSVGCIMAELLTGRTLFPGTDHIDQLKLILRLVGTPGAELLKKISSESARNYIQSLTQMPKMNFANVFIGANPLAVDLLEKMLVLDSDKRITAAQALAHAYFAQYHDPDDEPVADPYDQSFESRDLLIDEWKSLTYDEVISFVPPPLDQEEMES
T2 sequence (Q16539 whole entry): as above

For the molecule `Fc1ccc(-c2n[nH]cc2-c2ccnc(NCc3cccc(F)c3)c2)cc1` [Example A-254, N-[(3-fluorophenyl)methyl]-4-[3-(4-fluorophenyl)-1H-pyrazol-4-yl]-2-pyridinamine], the values for the IC50 (in test [1] (setting [2]); in the test with TNF-α) were 81 nM and 141 nM, respectively.
As for `Cc1cccc(C(=O)Cc2ccncc2)c1` [A-389, Step 1, 1-tolyl-2-(4-pyridyl)ethanone], in test [1] (setting [3]), the IC50 came to 1720 nM.
Regarding `Ic1ccc(-c2n[nH]cc2-c2ccncc2)cc1` [Example A-250, 4-[3-(4-iodophenyl)-1H-pyrazol-4-yl]pyridine], the IC50 in test [1] (setting [2]) turned out to be 2870 nM.
The same measure, in the same setting: the same measure for `Fc1ccc(-c2n[nH]cc2-c2ccnc(/C=C/c3ccccc3)c2)cc1` [Example A-244, (E)-4-[3-(4-fluorophenyl)-1H-pyrazol-4-yl]-2-(2-phenylethenyl)pyridine]: 99 nM.
In the case of `Clc1ccc(-c2n[nH]cc2-c2ccnc(NCc3ccccn3)c2)cc1` [Example A-247, N-[4-[3-(4-chlorophenyl)-1H-pyrazol-4-yl]-2-pyridinyl]-2-pyridinemethanamine], the concentration for half-maximal inhibition (IC50) was < 10 nM in test [1] (setting [2]) and 166 nM in the test with TNF-α.
On to `COc1ccc(CNc2cc(-c3c[nH]nc3-c3ccc(Cl)cc3)ccn2)cc1` [Example A-246, 4-[3-(4-chlorophenyl)-1H-pyrazol-4-yl]-N-[(4-methoxy-phenyl)methyl]-2-pyridinamine], for which the IC50 in test [1] (setting [2]) was 592 nM; in the test on TNF-α it was 495 nM; on human p38 kinase alpha, 403 nM.
Regarding `Fc1cc(-c2c[nH]nc2-c2ccc(F)c(F)c2)ccn1` [Example A-257, 4-[3-(3,4-difluorophenyl)-1H-pyrazol-4-yl]-2-fluoropyridine], the IC50 in test [1] (setting [2]) was < 10 nM; in the test with TNF-α it was 517 nM; on human p38 kinase alpha, 1080 nM.
Regarding `O=C(C(=C1SCS1)c1ccncc1)c1ccc(OC(F)(F)F)cc1` [Example A-395], the IC50 in test [1] (setting [3]) was > 100000 nM.
As for `Clc1ccc(-c2n[nH]c(SC3CCNCC3)c2-c2ccncc2)cc1` [A-459 (salt)], the IC50 in test [1] (setting [3]) was determined as 100 nM.
On to `O=C(O)CSc1[nH]nc(-c2ccc(Cl)cc2)c1-c1ccncc1` [Example A-461], for which the IC50 in test [1] (setting [3]) worked out at 30600 nM.
With `Cn1cc(-c2ccnc(F)c2)c(-c2ccc(F)cc2)n1` [Example A-256, 2-fluoro-4-[3-(4-fluorophenyl)-1-methyl-1H-pyrazol-4-yl]pyridine], the IC50 worked out at 813 nM in test [1] (setting [2]) and 456 nM in the test on TNF-α.
Regarding `C=CCn1cc(-c2ccncc2)c(-c2ccc(F)cc2)n1` [Example A-385, 4-[3-(4-fluorophenyl)-1-(2-propenyl)-1H-pyrazol-4-yl]pyridine, monohydrochloride], in test [1] (Table 9, 10% DMSO, read-out: p38α Kinase Assay IC50), the IC50 was 180 nM and 1250 nM.
In the case of `O=C(O)C(Cc1cnc[nH]1)Sc1[nH]nc(-c2ccc(Cl)cc2)c1-c1ccncc1` (stereo not drawn) [Example A-471], the IC50 in test [1] (setting [3]) stood at 4920 nM.
Take `Cn1cc(-c2ccncc2)c(-c2cccc(C(F)(F)F)c2)n1` [Example A-238, 4-[1-methyl-3-[3-(trifluoromethyl)phenyl]-1H-pyrazol-4-yl]pyridine]: the IC50 came to 177 nM in test [1] (setting [2]) and 402 nM in the test with TNF-α.
On to `COc1ccccc1N1CCN(c2n[nH]c(-c3ccc(Cl)cc3)c2-c2ccncc2)CC1` [Example A-336, 1-[5-(4-chlorophenyl)-4-(4-pyridinyl)-1H-pyrazol-3-yl]-4-(2-methoxyphenyl)piperazine], for which the IC50 in test [1] (Table 8, 10% DMSO, read-out: p38α Kinase Assay IC50) stood at 1160 nM.
`O=C(C(=C(SCC1OCCO1)SCC1OCCO1)c1ccncc1)c1ccc(F)cc1` [Example A-449]: the IC50 in test [1] (setting [3]) worked out at 59000 nM.
